For this experiment, the system named is VEGFR. Nature of the experiment: Cell-based competitive binding assay on U87MG cells. Set-up: species or system human. To be noted: read-out: IC50, competitive binding, competition against [^64Cu]VEGF125–136 (74 kBq/1 mL), competitor 0-10 000 nmol/L, 37 °C, 1 h, γ counter, triplicate.

As for QKRKRKKSRYKS [VEGF125–136], the IC50 came out at 277 ± 6.19 nM.

These data come from publication PMC7178340 (ACS Omega, 2020).
